EPA's ToxRefDB 2

Assays:
[1] = test system: mouse; conditions: Subchronic oral toxicity in rodents, cd1, Feed, dose end: 3 month, group: systemic, systemic / clinical chemistry / albumin / albumin + systemic / clinical chemistry / bilirubin / total bilirubin + systemic / organ weight / …
[2] = test system: dog; conditions: Subchronic oral toxicity in nonrodent, beagle, Feed, dose end: 90 day, group: systemic, systemic / hematology / [other] / [other] + systemic / hematology / anisocytosis / anisocytosis + systemic / hematology / leukocyte (wbc) …
[3] = test system: rat; conditions: Prenatal developmental toxicity study, sprague dawley, Oral, Gavage/Intubation, dose end: 15 GD
[4] = test system: rat; conditions: Multigenerational reproductive toxicity study, sprague dawley, Oral, Feed, dose end: 2 generation
[5] = test system: rabbit; conditions: Prenatal developmental toxicity study, new zealand white, Oral, Gavage/Intubation, dose end: 19 GD
[6] = test system: rat; conditions: Combined chronic toxicity/carcinogenicity; sprague dawley; Oral; Feed; dose end: 2 year; group: systemic; systemic / clinical chemistry / bilirubin / total bilirubin + systemic / hematology / lymphocyte / lymphocyte + systemic / hematology / …
[7] = test system: dog; conditions: Chronic toxicity; beagle; Oral; Feed; dose end: 1 year; group: systemic; systemic / pathology microscopic / kidney / fatty change + systemic / pathology microscopic / kidney / lipofuscin deposits + systemic / …
[8] = test system: rat; conditions: Subchronic oral toxicity in rodents, sprague dawley, Feed, dose end: 90 day, group: systemic
[9] = test system: mouse; conditions: Carcinogenicity, cd1, Oral, Feed, dose end: 18 month, group: systemic
[10] = test system: rat; conditions: Combined chronic toxicity/carcinogenicity, sprague dawley, Oral, Feed, dose end: 104 week, group: systemic
[11] = group: developmental, developmental / developmental malformation / bone / full supernumerary + developmental / developmental malformation / bone / short …
[12] = group: maternal, systemic / in life observation / body weight / body weight gain
[13] = group: offspring, systemic / in life observation / body weight / offspring (pup) weight
[14] = group: parental, systemic / in life observation / body weight / body weight + systemic / in life observation / body weight / body weight gain
[15] = group: reproductive, reproductive / reproductive performance / fertility / fertility
[16] = group: developmental, developmental / developmental malformation / general / runts
[17] = group: developmental, developmental / developmental malformation / general / runts + developmental / developmental malformation / bone / detached + developmental…
[18] = group: maternal, systemic / in life observation / body weight / body weight gain + systemic / in life observation / food consumption / food consumption + …
[19] = systemic / in life observation / body weight / body weight + systemic / in life observation / body weight / body weight gain
[20] = systemic / in life observation / body weight / body weight + systemic / in life observation / body weight / body weight gain + systemic / …
[21] = systemic / pathology microscopic / kidney / adenoma + systemic / organ weight / kidney / absolute + systemic / organ weight / kidney / …

`COc1nc(C)nc(NC(=O)NS(=O)(=O)c2ccccc2CCC(F)(F)F)n1` [Prosulfuron] was tested, and the LEL [1] was 69.3 mg/kg/day, the LOAEL [1] was 69.3 mg/kg/day and the NEL [1] was 2.01 mg/kg/day. It also gave an NOAEL [1] of 2.01 mg/kg/day, an LEL [2] of 54 mg/kg/day and an LOAEL [2] of 54 mg/kg/day. It also gave an NEL [2] of 6.5 mg/kg/day, an NOAEL [2] of 6.5 mg/kg/day and an LEL [3, 11] of 400 mg/kg/day. For the same compound, the LOAEL [3, 11] was 400 mg/kg/day, the NEL [3, 11] was 200 mg/kg/day and the NOAEL [3, 11] was 200 mg/kg/day. The LEL [3, 12] was 400 mg/kg/day, the LOAEL [3, 12] was 400 mg/kg/day and the NEL [3, 12] was 200 mg/kg/day. The NOAEL [3, 12] was 200 mg/kg/day, the LEL [4, 13] was 136 mg/kg/day and the LOAEL [4, 13] was 136 mg/kg/day. It also gave an NEL [4, 13] of 13.3 mg/kg/day, an NOAEL [4, 13] of 13.3 mg/kg/day and an LEL [4, 14] of 136 mg/kg/day. For the same compound, the LOAEL [4, 14] was 136 mg/kg/day, the NEL [4, 14] was 13.3 mg/kg/day and the NOAEL [4, 14] was 13.3 mg/kg/day. For the same compound, the LEL [4, 15] was 278 mg/kg/day, the LOAEL [4, 15] was over 278 mg/kg/day and the NEL [4, 15] was 136 mg/kg/day. It also gave an NOAEL [4, 15] of at least 278 mg/kg/day, an NEL [5, 16] of 100 mg/kg/day and an NOAEL [5, 16] of 100 mg/kg/day. For the same compound, the LEL [5, 17] was 200 mg/kg/day, the LOAEL [5, 17] was 200 mg/kg/day and the LOAEL ([5]; group: maternal, systemic / in life observation / body weight / body weight gain + systemic / in life observation / food consumption / food consumption) was 100 mg/kg/day. The LEL [5, 18] was 100 mg/kg/day, the NEL [5, 18] was 20 mg/kg/day and the NOAEL [5, 18] was 20 mg/kg/day. It also gave an LEL [6] of 0.4 mg/kg/day, an LOAEL [6] of 79.9 mg/kg/day and an NEL [6] of under 0.4 mg/kg/day. The NOAEL [6] was 7.9 mg/kg/day, the LEL [7] was 18.6 mg/kg/day and the LOAEL [7] was 18.6 mg/kg/day. It also gave an NEL [7] of 1.95 mg/kg/day, an NOAEL [7] of 1.95 mg/kg/day and an LEL [8, 19] of 31 mg/kg/day. For the same compound, the LOAEL [8, 19] was 31 mg/kg/day, the NEL [8, 20] was 3.1 mg/kg/day and the NOAEL [8, 20] was 3.1 mg/kg/day. It also gave an LOAEL ([9]; systemic / in life observation / body weight / body weight gain) of 508 mg/kg/day, an NOAEL ([9]; systemic / in life observation / body weight / body weight gain + systemic / hematology / mean corpuscular hemoglobin concentration (mchc…) of 100 mg/kg/day and an LEL ([9]; systemic / pathology microscopic / liver / hypertrophy) of 81.4 mg/kg/day. It also gave an NEL ([9]; systemic / pathology microscopic / liver / hypertrophy + systemic / hematology / hematocrit (hct) / hematocrit (hct) + systemic / in life …) of 1.71 mg/kg/day.
`O=P(OC(CCl)CCl)(OC(CCl)CCl)OC(CCl)CCl` [TDCPP] showed an NEL ([10]; systemic / pathology microscopic / adrenal gland / adenoma + systemic / pathology microscopic / kidney / adenoma + systemic / pathology …) of 5 mg/kg/day, an LEL [10, 21] of 20 mg/kg/day and an LOAEL [10, 21] of over 80 mg/kg/day. The NOAEL [10, 21] was at least 80 mg/kg/day.
